These molecules were tested against T1, human mGluR3 (hmGluR3) (Homo sapiens, UniProt Q14832) (assay: Human mGluR3 positive allosteric modulator evaluation using Ca++ functional assay). Conditions: hmGluR3 transiently over-expressed in HEK-293 cells; stimulated by EC50 glutamate concentration; intracellular Ca2+ (Fluo4AM, FLIPR Tetra).
T1 construct: expressed in transfected cells; host or cells: HEK-293 cells, transient co-transfection by electroporation
T1 sequence (Q14832 23-879): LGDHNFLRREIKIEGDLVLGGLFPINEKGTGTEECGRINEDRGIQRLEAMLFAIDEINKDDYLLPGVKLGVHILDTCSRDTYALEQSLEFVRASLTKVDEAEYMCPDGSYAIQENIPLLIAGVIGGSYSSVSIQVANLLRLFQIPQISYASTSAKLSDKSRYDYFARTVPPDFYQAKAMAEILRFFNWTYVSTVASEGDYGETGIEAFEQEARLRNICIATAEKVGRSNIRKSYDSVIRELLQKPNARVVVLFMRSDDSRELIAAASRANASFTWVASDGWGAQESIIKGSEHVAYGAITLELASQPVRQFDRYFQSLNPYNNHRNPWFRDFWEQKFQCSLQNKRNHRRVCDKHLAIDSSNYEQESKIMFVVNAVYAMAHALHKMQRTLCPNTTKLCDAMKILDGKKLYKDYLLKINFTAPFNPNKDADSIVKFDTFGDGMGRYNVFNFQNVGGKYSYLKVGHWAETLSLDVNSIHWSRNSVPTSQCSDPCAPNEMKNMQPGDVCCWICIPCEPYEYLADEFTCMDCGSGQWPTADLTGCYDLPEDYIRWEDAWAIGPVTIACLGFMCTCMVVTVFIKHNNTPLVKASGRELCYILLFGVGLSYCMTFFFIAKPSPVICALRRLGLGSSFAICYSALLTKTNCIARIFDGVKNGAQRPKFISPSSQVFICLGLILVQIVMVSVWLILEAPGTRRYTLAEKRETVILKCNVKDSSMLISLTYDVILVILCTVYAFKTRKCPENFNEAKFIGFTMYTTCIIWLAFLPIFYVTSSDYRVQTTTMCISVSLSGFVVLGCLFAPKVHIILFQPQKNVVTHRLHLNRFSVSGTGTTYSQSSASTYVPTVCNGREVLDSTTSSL
Type: cell-based
Procedure: Compounds of the present invention were tested successively for their agonist and positive allosteric modulator activities on human mGluR3 (hmGluR3) transiently over-expressed in HEK-293 cells. Compounds exert agonist activity if they are able to activate hmGluR3 by themselves, i.e., in absence of the endogenous agonist glutamate; and they exert positive allosteric modulator activity if they increase the action of the endogenous agonist glutamate.
HEK-293 cells were maintained in Modified Eagle's Medium supplemented with 10% Foetal Calf Serum, 1% Penicillin/Streptomycin and 1% non-essential amino acids at 37° C./5% CO2.
Cells were co-transfected by electroporation with four DNA plasmids encoding hmGluR3, a chimeric G protein allowing redirection of the activation signal toward intracellular calcium pathway, and two glutamate transporters so as to decrease extracellular glutamate levels and avoid receptor desensitization (Brabet I et al., Neuropharmacology 37(8), 1043-51, 1998). After transfection, cells were seeded in 75 cm^2 culture flasks, and cultured for 24 h.
Receptor activity was detected by changes in intracellular calcium measured using the fluorescent Ca^2+ sensitive dye, Fluo4AM (Molecular Probes).
The day of the assay, medium was aspirated and replaced during 3 hrs by freshly prepared buffer B (HBSS 1×, Hepes 20 mM, MgSO4-7H2O 1 mM, Na2CO3 3.3 mM, CaCl2-2H2O 1.3 mM, 0.5% BSA, Probenecid 2.5 mM). Then, cells were loaded at 37° C./5% CO2 for 1.5 hrs with buffer B containing 1 μM Fluo4AM, 0.1 mg/mL Pluronic Acid, 7 μg/mL Glutamate Pyruvate Transaminase and 2 mM sodium pyruvate. Afterwards cells were washed with buffer B. Cells were then detached from the 75 cm^2 culture flasks with Accutase® (5 min incubation at 37° C.), centrifuged (5 min at 840 rpm), resuspended in buffer B and finally seeded at a density of 30,000 cells/well in black-walled clear-bottom 384-well plates. Addition of compounds on cells and intracellular Ca^2+ measurements (excitation 485 nm, emission 525 nm) were performed by the fluorescence microplate reader FLIPR Tetra (Molecular Devices).
Agonist and positive allosteric modulator activities of compounds were consecutively evaluated on the same cells plate. Agonist activity was first tested during 10 min with the addition of compound alone on the cells. Then, the cells were stimulated by an EC50 glutamate concentration and fluorescence was recorded for additional 3 min. EC50 glutamate concentration is the concentration giving 50% of the maximal glutamate response. Agonist and/or positive allosteric modulator activity(ies) were evaluated in comparison to basal signal or signal evoked by EC50 glutamate concentration alone, respectively.
For potency determination, a dose-response test was performed using 20 concentrations of each compound of the invention. Dose-response curves were fitted using the sigmoïdal dose-response (variable slope) analysis in XLfit Scientific Curve Fitting for Excel (IDBS). EC50 of agonist/EC50 of positive allosteric modulator activity(ies) were calculated. Dose-response experiments were all performed in duplicate, two times independently.
In the case of `CN1C(=O)c2cccn2-c2cc(-c3ccc(Cl)nc3)ccc2C12CC2` [Example 54, 5-Methyl-9-(6-chloropyridin-3-yl)-spiro[benzo[f]pyrrolo[1,2-a][1,4]diazepine-6,1′-cyclopropan]-4(5H)-one], the EC50 is reported as < 100 nM. With `Cc1cc(-c2ccc3c(c2)-n2nc(-c4ccccc4)cc2C(=O)N(C)C32CC2)cc(C)n1` [Example 121, 9-(2,6-Dimethyl-pyridin-4-yl)-5-methyl-2-phenyl-spiro[benzo[f]pyrazolo[1,5-a][1,4]diazepine-6,1′-cyclopropan]-4(5H)-one] the EC50 was 100 to 1000 nM. For `Cc1ncccc1-c1ccc2c(c1)-n1cc(-c3ncc[nH]3)cc1C(=O)N(C)C21CC1` [Example 184], the EC50 was < 100 nM. In the case of `CN1C(=O)c2cc(-c3ccccc3)nn2-c2cc(-c3ccccc3Cl)ccc2C12CC2` [Example 131, 9-(2-Chloro-phenyl)-5-methyl-2-phenyl-spiro[benzo[f]pyrazolo[1,5-a][1,4]diazepine-6,1′-cyclopropan]-4(5H)-one], the EC50 is reported as > 1000 nM. For `CN1C(=O)c2cc(-c3nnco3)cn2-c2cc(-c3ccc(Cl)nc3)ccc2C12CC2` [Example 191], the EC50 was < 100 nM. With `Cc1ncccc1-c1cc(F)c2c(c1)-n1cccc1C(=O)N(C)C21CC1` [Example 73, 7-Fluoro-5-methyl-9-(2-methyl-pyridin-3-yl)-spiro[benzo[f]pyrrolo[1,2-a][1,4]diazepine-6,1′-cyclopropan]-4(5H)-one] the EC50 was < 100 nM. With `Cc1ccnc(C)c1-c1ccc2c(c1)-n1cccc1C(=O)N(C)C21CC1` [Example 65, 5-Methyl-9-(2,4-dimethylpyridin-3-yl)-spiro[benzo[f]pyrrolo[1,2-a][1,4]diazepine-6,1′-cyclopropan]-4(5H)-one] the EC50 was > 1000 nM. With `Cc1ncccc1-c1ccc2c(c1)-n1cc(-c3ccnn3C)cc1C(=O)N(C)C21CC1` [Example 160] the EC50 was < 100 nM. With `CN1C(=O)c2cccn2-c2cc(Br)c(F)cc2C12CC2` [Example 9, 9-Bromo-8-fluoro-5-methyl-spiro[benzo[f]pyrrolo[1,2-a][1,4]diazepine-6,1′-cyclopropan]-4(5H)-one] the EC50 was > 1000 nM. With `Cc1nccnc1-c1ccc2c(c1)-n1cccc1C(=O)N(C)C21CC1` [Example 58, 5-Methyl-9-(3-methyl-pyrazin-2-yl)-5,6-spiro[benzo[f]pyrrolo[1,2-a][1,4]diazepine-6,1′-cyclopropan]-4(5H)-one] the EC50 was > 1000 nM. `Cc1ncccc1-c1ccc2c(c1)-n1c(F)ccc1C(=O)N(C)C21CC1` [Example 81, 9-(2-Methyl-pyridin-3-yl)-1-fluoro-5-methyl-spiro[benzo[f]pyrrolo[1,2-a][1,4]diazepine-6,1′-cyclopropan]-4(5H)-one] was tested, and the EC50 was < 100 nM. In the case of `Cc1ncccc1-c1ccc2c(c1)-n1cc(-c3cccc(F)c3)cc1C(=O)N(C)C21CC1` [Example 152], the EC50 is reported as < 100 nM. With `Cc1ccc(-c2ccc3c(c2)-n2nc(-c4ccccc4)cc2C(=O)N(C)C32CC2)c(C)n1` [Example 126, 9-(2,6-Dimethyl-pyridin-3-yl)-5-methyl-2-phenyl-spiro[benzo[f]pyrazolo[1,5-a][1,4]diazepine-6,1′-cyclopropan]-4(5H)-one] the EC50 was < 100 nM. `Cc1cc(-c2ccc3c(c2)-n2cccc2C(=O)N(C)C32CC2)ccn1` [Example 26, 5-Methyl-9-(2-methylpyridin-4-yl)-spiro[benzo[f]pyrrolo[1,2-a][1,4]diazepine-6,1′-cyclopropan]-4(5H)-one] gave an EC50 of 100 to 1000 nM. `Cc1ncccc1-c1ccc2c(c1)-n1cc(-c3ccccc3F)cc1C(=O)N(C)C21CC1` [Example 151] was tested, and the EC50 was < 100 nM. `CN1C(=O)c2cc(-c3ccccc3)cn2-c2ccc(Br)cc2C12CC2` [Example 16, 8-Bromo-5-methyl-2-phenyl-spiro[benzo[f]pyrrolo[1,2-a][1,4]diazepine-6,1′-cyclopropan]-4(5H)-one] was tested, and the EC50 was > 1000 nM. In the case of `Cc1ncccc1-c1ccc2c(c1)-n1cc(-c3cnco3)cc1C(=O)N(C)C21CC1` [Example 182], the EC50 is reported as < 100 nM. `CN1C(=O)c2cccn2-c2cc(Cl)ccc2C1(C)C` [Example 222, 9-Chloro-5,6,6-trimethyl-5,6-dihydro-benzo[f]pyrrolo[1,2-a][1,4]diazepin-4-one] was tested, and the EC50 was > 1000 nM.

Source: patent US11008323B2, “Substituted tricyclic 1,4-benzodiazepinone derivatives as allosteric modulators of group II metabotropic glutamate receptors” (Domain Therapeutics, priority 2015, dated 2021)
